Values after ≈ are worked out from the molar mass of the structure shown. Where two headings read alike, the source gives them in different places.
Experiments:
[1] = cited from earlier work
[2] = Azithromycin solubility as a function of pH; assay type: physicochemical
Experimental: The effective amount of alkaline agent that would suppress the dissolution of azithromycin in the stomach and thereby result in an improvement in the toleration of the immediate release (IR) formulation was calculated as follows. The IR formulation, without an alkalizing agent, releases about 92% of the drug in 30 minutes at pH 6.0 as described in Example 5, i.e., 3.07% per minute at pH 6.0. To improve the toleration, the azithromycin dissolution rate must be reduced, preferably to a rate that will release only about 1.5 gA, or less, in the first 30 minutes or no greater than 2.5% per minute. It was assumed that the rate of drug dissolution from an IR formulation is directly proportional to the solubility of azithromycin, which is dependent on the pH as shown in Table 10.

[3] = 3,995 human patients, all dose levels combined, cited from earlier work
[4] = taken simultaneously with antacids; cited from earlier work
[5] = adult humans, single 1 gram dose, oral suspension
[6] = adult humans, single 2 gram, oral suspension
[7] = pediatric humans, oral suspension 10 mg/kg on Day 1 and 5 mg/kg on days 2–5
[8] = pediatric humans, single 30 mg/kg dose, oral suspension

## CC[C@H]1OC(=O)[C@H](C)[C@@H](O[C@H]2C[C@@](C)(OC)[C@@H](O)[C@H](C)O2)[C@H](C)[C@@H](O[C@@H]2O[C@H](C)C[C@H](N(C)C)[C@H]2O)[C@](C)(O)C[C@@H](C)CN(C)[C@H](C)[C@@H](O)[C@]1(C)O [Azithromycin, azithromycin]
[1]; [5]
  reported incidence of abdominal pain: 5%
  reported incidence of diarrhea/loose stools: 7%
  reported incidence of nausea: 5%
  reported incidence of vomiting: 2%
[1]; [6]
  reported incidence of abdominal pain: 7%
  reported incidence of diarrhea/loose stools: 14%
  reported incidence of vomiting: 7%
[1]; [7]
  reported incidence of abdominal pain: 2%
  reported incidence of diarrhea/loose stools: 4%
  reported incidence of vomiting: 2%
[1]; [8]
  reported incidence of diarrhea/loose stools: 6.4%
  reported incidence of nausea: 1.7%
  reported incidence of vomiting: 4%
[2]; aqueous buffer, pH 6.0, obtained by interpolation from Table 10, read-out: azithromycin solubility at pH 6.0
  solubility: 390 mg/mL (≈ 521 mM)
[2]; pH 2.88, aqueous buffer, read-out: Azithromycin Solubility
  solubility: 440 mg/mL (≈ 587 mM)
[2]; pH 4.09, aqueous buffer, read-out: Azithromycin Solubility
  solubility: 430 mg/mL (≈ 574 mM)
[2]; pH 6.15, aqueous buffer, read-out: Azithromycin Solubility
  solubility: 380 mg/mL (≈ 507 mM)
[2]; pH 6.42, aqueous buffer, read-out: Azithromycin Solubility
  solubility: 310 mg/mL (≈ 414 mM)
[2]; pH 6.61, aqueous buffer, read-out: Azithromycin Solubility
  solubility: 250 mg/mL (≈ 334 mM)
[2]; pH 6.65, aqueous buffer, read-out: Azithromycin Solubility
  solubility: 140 mg/mL (≈ 187 mM)
[2]; pH 6.75, aqueous buffer, read-out: Azithromycin Solubility
  solubility: 120 mg/mL (≈ 160 mM)
[2]; pH 6.87, aqueous buffer, read-out: Azithromycin Solubility
  solubility: 36 mg/mL (≈ 48.1 mM)
[2]; pH 7.41, aqueous buffer, read-out: Azithromycin Solubility
  solubility: 5 mg/mL (≈ 6.68 mM)
[2]; pH 8.02, aqueous buffer, read-out: Azithromycin Solubility
  solubility: 0.5 mg/mL (≈ 0.668 mM)
[2]; pH 8.85, aqueous buffer, read-out: Azithromycin Solubility
  solubility: 0.02 mg/mL (≈ 0.0267 mM)
[2]; pH 10.34, aqueous buffer, read-out: Azithromycin Solubility
  solubility: 0.005 mg/mL (≈ 0.00668 mM)
[3]; oral
  patients reporting GI side effects: 9.6%
[3]
  frequency of abdominal pain: 2.5%
  frequency of diarrhea: 3.6%
  frequency of nausea: 2.6%
[4]
  reduction of azithromycin maximum serum concentration Cmax by antacids: 24%

— patent publication US6984403B2, “Azithromycin dosage forms with reduced side effects” (Pfizer Inc., priority 2003, dated 2006)
